Source: patent US9695155B2, “Herbicidal substituted pyrimidinyloxy benzene compounds” (E. I. DU PONT DE NEMOURS AND COMPANY, priority 2013, dated 2017)

How the values were obtained:
[1] = tested on: galium; test: Test C preemergence; type: in vivo, Galium aparine; conditions: Galium, pre-emergence
Outline: (§1)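 Seeds were sown in loam–sand blend and sprayed preemergence, while plants at 1- to 4-leaf stage (2–18 cm) in peat-based medium received postemergence sprays; test chemicals were formulated in a non-phytotoxic solvent with surfactant. After 13–15 days in a greenhouse, injury was rated visually against controls, 0 (no effect) to 100 (complete control).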

[2] = tested on: soybean; test: Test C preemergence; type: in vivo, Glycine max; conditions: Glycine max, pre-emergence
Outline: as §1

[3] = tested on: barnyardgrass; test: Test C preemergence; type: in vivo, Echinochloa crus-galli; conditions: Echinochloa crus-galli, pre-emergence
Outline: as §1

[4] = tested on: Italian ryegrass; test: Test A postemergence; type: in vivo, Lolium multiflorum; conditions: 0 to 100 scale, 0 no effect, 100 complete control
Outline: (§2)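 Pre- and postemergence greenhouse screen. Soil: loam + sand. Spray carrier: solvent mixture, non-phytotoxic, with surfactant. Post timing at 1–2 leaves, height 2–10 cm. Readout: visual injury on a 0–100 scale roughly 10 days after application, untreated plants as reference.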

[5] = tested on: velvetleaf; test: Test C preemergence; type: in vivo, Abutilon theophrasti; conditions: Abutilon theophrasti, pre-emergence
Outline: as §1

[6] = tested on: pigweed; test: Test C preemergence; type: in vivo, Amaranthus retroflexus; conditions: Amaranthus retroflexus, pre-emergence
Outline: as §1

[7] = tested on: kochia; test: Test A preemergence; type: in vivo, Kochia scoparia
Outline: as §2

[8] = tested on: galium; test: Test A postemergence; type: in vivo, Galium aparine; conditions: 0 to 100 scale, 0 no effect, 100 complete control
Outline: as §2

[9] = tested on: giant foxtail; test: Test C preemergence; type: in vivo, Setaria faberii; conditions: Setaria faberi, pre-emergence
Outline: as §1

[10] = tested on: oilseed rape; test: Test C preemergence; type: in vivo, Brassica napus; conditions: Brassica napus, pre-emergence
Outline: as §1

[11] = tested on: lambsquarters; test: Test C preemergence; type: in vivo, Chenopodium album; conditions: Chenopodium album, pre-emergence
Outline: as §1

[12] = tested on: large (Lg) crabgrass; test: Test C preemergence; type: in vivo, Digitaria sanguinalis; conditions: Digitaria sanguinalis, pre-emergence
Outline: as §1

[13] = tested on: waterhemp; test: Test C preemergence; type: in vivo, Amaranthus rudis; conditions: Amaranthus tuberculatus, pre-emergence
Outline: as §1

[14] = tested on: morningglory; test: Test C preemergence; type: in vivo, Ipomoea coccinea; conditions: Ipomoea, pre-emergence
Outline: as §1

[15] = tested on: blackgrass; test: Test C preemergence; type: in vivo, Alopecurus myosuroides; conditions: Alopecurus myosuroides, pre-emergence
Outline: as §1

[16] = tested on: kochia; test: Test A postemergence; type: in vivo, Kochia scoparia; conditions: 0 to 100 scale, 0 no effect, 100 complete control
Outline: as §2

[17] = tested on: ragweed; test: Test C preemergence; type: in vivo, Ambrosia elatior; conditions: Ambrosia artemisiifolia, pre-emergence
Outline: as §1

[18] = tested on: blackgrass; test: Test A postemergence; type: in vivo, Alopecurus myosuroides; conditions: 0 to 100 scale, 0 no effect, 100 complete control
Outline: as §2

What does the source list for `N#Cc1cccc(Oc2ncc(Cl)cn2)c1-n1cc(C(F)F)cn1` [Compound 253, 3-(5-chloropyrimidin-2-yl)oxy-2-[4-(difluoromethyl)-1H-pyrazol-1-yl]benzonitrile]?
pest or weed control at 16 g/ha ([1]; 16 g ai/ha, preemergence, scale 0 to 100 (0 no effect, 100 complete control), read-out: Galium plant response rating): 70%; pest or weed control at 125 g/ha ([1]; 125 g ai/ha, preemergence, scale 0 (no effect) to 100 (complete control), read-out: Galium plant response rating): 95%; pest or weed control at 62 g/ha ([1]; Preemergence, 62 g ai/ha, scale 0 to 100, 0 no effect, 100 complete control, read-out: Plant response rating, Galium): 100%; plant injury at 16 g/ha ([2]; 16 g ai/ha, preemergence, scale 0 to 100 (0 no effect, 100 complete control), read-out: Soybean plant response rating): 40%; plant injury at 125 g/ha ([2]; 125 g ai/ha, preemergence, scale 0 (no effect) to 100 (complete control), read-out: Soybean plant response rating): 98%; plant injury at 62 g/ha ([2]; Preemergence, 62 g ai/ha, scale 0 to 100, 0 no effect, 100 complete control, read-out: Plant response rating, Soybean): 95%; pest or weed control at 16 g/ha ([3]; 16 g ai/ha, preemergence, scale 0 to 100 (0 no effect, 100 complete control), read-out: Barnyardgrass plant response rating): 30%; pest or weed control at 125 g/ha ([3]; 125 g ai/ha, preemergence, scale 0 (no effect) to 100 (complete control), read-out: Barnyardgrass plant response rating): 100%; pest or weed control at 62 g/ha ([3]; Preemergence, 62 g ai/ha, scale 0 to 100, 0 no effect, 100 complete control, read-out: Plant response rating, Barnyardgrass): 100%; Plant response rating, Ryegrass, Italian ([4]; 31 g ai/ha): 0; Plant response rating, Ryegrass, Italian ([4]; 125 g ai/ha): 50; pest or weed control at 16 g/ha ([5]; 16 g ai/ha, preemergence, scale 0 to 100 (0 no effect, 100 complete control), read-out: Velvetleaf plant response rating): 55%; pest or weed control at 125 g/ha ([5]; 125 g ai/ha, preemergence, scale 0 (no effect) to 100 (complete control), read-out: Velvetleaf plant response rating): 100%; pest or weed control at 62 g/ha ([5]; Preemergence, 62 g ai/ha, scale 0 to 100, 0 no effect, 100 complete control, read-out: Plant response rating, Velvetleaf): 100%; pest or weed control at 16 g/ha ([6]; 16 g ai/ha, preemergence, scale 0 to 100 (0 no effect, 100 complete control), read-out: Pigweed plant response rating): 100%; pest or weed control at 125 g/ha ([6]; 125 g ai/ha, preemergence, scale 0 (no effect) to 100 (complete control), read-out: Pigweed plant response rating): 100%; pest or weed control at 62 g/ha ([6]; Preemergence, 62 g ai/ha, scale 0 to 100, 0 no effect, 100 complete control, read-out: Plant response rating, Pigweed): 100%; Plant response rating, Kochia ([7]; 31 g ai/ha, 0 to 100 scale where 0 is no effect and 100 is complete control, visual, approximately 10 days): 90; Kochia plant response rating (0 to 100 scale) ([7]; 125 g ai/ha): 100; Plant response rating, Galium ([8]; 31 g ai/ha): 60; Plant response rating, Galium ([8]; 125 g ai/ha): 100; pest or weed control at 16 g/ha ([9]; 16 g ai/ha, preemergence, scale 0 to 100 (0 no effect, 100 complete control), read-out: Foxtail, Giant plant response rating): 35%; pest or weed control at 125 g/ha ([9]; 125 g ai/ha, preemergence, scale 0 (no effect) to 100 (complete control), read-out: Foxtail, Giant plant response rating): 100%; pest or weed control at 62 g/ha ([9]; Preemergence, 62 g ai/ha, scale 0 to 100, 0 no effect, 100 complete control, read-out: Plant response rating, Foxtail, Giant): 98%; plant injury at 16 g/ha ([10]; 16 g ai/ha, preemergence, scale 0 to 100 (0 no effect, 100 complete control), read-out: Oilseed Rape plant response rating): 75%; plant injury at 125 g/ha ([10]; 125 g ai/ha, preemergence, scale 0 (no effect) to 100 (complete control), read-out: Oilseed Rape plant response rating): 100%; plant injury at 62 g/ha ([10]; Preemergence, 62 g ai/ha, scale 0 to 100, 0 no effect, 100 complete control, read-out: Plant response rating, Oilseed Rape): 100%; pest or weed control at 16 g/ha ([11]; 16 g ai/ha, preemergence, scale 0 to 100 (0 no effect, 100 complete control), read-out: Lambsquarters plant response rating): 100%; pest or weed control at 125 g/ha ([11]; 125 g ai/ha, preemergence, scale 0 (no effect) to 100 (complete control), read-out: Lambsquarters plant response rating): 100%; pest or weed control at 62 g/ha ([11]; Preemergence, 62 g ai/ha, scale 0 to 100, 0 no effect, 100 complete control, read-out: Plant response rating, Lambsquarters): 100%; pest or weed control at 16 g/ha ([12]; 16 g ai/ha, preemergence, scale 0 to 100 (0 no effect, 100 complete control), read-out: Crabgrass, Large plant response rating): 85%; pest or weed control at 125 g/ha ([12]; 125 g ai/ha, preemergence, scale 0 (no effect) to 100 (complete control), read-out: Crabgrass, Large plant response rating): 100%; pest or weed control at 62 g/ha ([12]; Preemergence, 62 g ai/ha, scale 0 to 100, 0 no effect, 100 complete control, read-out: Plant response rating, Crabgrass, Large): 100%; pest or weed control at 16 g/ha ([13]; 16 g ai/ha, preemergence, scale 0 to 100 (0 no effect, 100 complete control), read-out: Waterhemp plant response rating): 100%; pest or weed control at 125 g/ha ([13]; 125 g ai/ha, preemergence, scale 0 (no effect) to 100 (complete control), read-out: Waterhemp plant response rating): 100%; pest or weed control at 62 g/ha ([13]; Preemergence, 62 g ai/ha, scale 0 to 100, 0 no effect, 100 complete control, read-out: Plant response rating, Waterhemp): 100%; pest or weed control at 16 g/ha ([14]; 16 g ai/ha, preemergence, scale 0 to 100 (0 no effect, 100 complete control), read-out: Morningglory plant response rating): 40%; pest or weed control at 125 g/ha ([14]; 125 g ai/ha, preemergence, scale 0 (no effect) to 100 (complete control), read-out: Morningglory plant response rating): 100%; pest or weed control at 62 g/ha ([14]; Preemergence, 62 g ai/ha, scale 0 to 100, 0 no effect, 100 complete control, read-out: Plant response rating, Morningglory): 98%; pest or weed control at 16 g/ha ([15]; 16 g ai/ha, preemergence, scale 0 to 100 (0 no effect, 100 complete control), read-out: Blackgrass plant response rating): 0%; pest or weed control at 125 g/ha ([15]; 125 g ai/ha, preemergence, scale 0 (no effect) to 100 (complete control), read-out: Blackgrass plant response rating): 90%; pest or weed control at 62 g/ha ([15]; Preemergence, 62 g ai/ha, scale 0 to 100, 0 no effect, 100 complete control, read-out: Plant response rating, Blackgrass): 90%; Plant response rating, Kochia ([16]; 31 g ai/ha): 100; Plant response rating, Kochia ([16]; 125 g ai/ha): 100; pest or weed control at 16 g/ha ([17]; 16 g ai/ha, preemergence, scale 0 to 100 (0 no effect, 100 complete control), read-out: Ragweed plant response rating): 35%; pest or weed control at 125 g/ha ([17]; 125 g ai/ha, preemergence, scale 0 (no effect) to 100 (complete control), read-out: Ragweed plant response rating): 100%; pest or weed control at 62 g/ha ([17]; Preemergence, 62 g ai/ha, scale 0 to 100, 0 no effect, 100 complete control, read-out: Plant response rating, Ragweed): 85%; Plant response rating, Blackgrass ([18]; 31 g ai/ha): 20; Plant response rating, Blackgrass ([18]; 125 g ai/ha): 80
